# Where no end group is shown, it is not given here.
# Legend:
# DR3DQ2×RIP-B7.1 mice = assay: Adjuvanted antigen priming (disease acceleration), diabetes monitoring; format: in vivo
# Text: Mice were monitored weekly for diabetes up to 20 weeks post prime. The grey dotted line indicates the expected level of spontaneous diabetes in mice aged 12 weeks on day 0 of the experiments (based on the data in FIG. 1 and normalised for gender). Statistical analysis with Mantel-Cox Log-rank test. **p<0.01, ***p<0.001. • (b-e) Blood glucose levels for each individual mouse in the group immunised with PBS (b), murine proinsulin-2 peptides (c), human GAD65 (d) or fragment of human IA-2 (e).
# Mice were monitored weekly for diabetes up to 20 weeks post prime. The grey dotted line indicates the expected level of spontaneous diabetes in mice aged 8 weeks on day 0 of the experiment, based on the data in FIG. 1 and normalised for gender. Statistical analysis with Mantel-Cox Log-rank test. ***p<0.001 for B23-C20 versus B1-30 or C10-A6. ? p<0.01 for B23-C20 versus C25-A21. Rest not significant. • (b-e) Blood glucose levels for each individual mouse in the group immunised with B1-30 (b), B23-C20 (c), C10-A6 (d) or C25-A21 (e).
# (a) DR3DQ2×RIP-B7.1 mice aged 10-14 weeks were challenged with 100 μg of either GP-15 (2 ♂3♀), YA-15 (2 ♂3♀), ME-15 (3 ♂2♀), RG-15 (3 ♂2♀), DA-15 (2 ♂3♀) or VD-14 (3♂2♀) peptide in TiterMax Gold adjuvant s.c. on days 0 and 14, with 200 ng pertussis toxin administered i.p on days 0 and 1 or 2. Mice were monitored weekly for diabetes up to 20 weeks post prime. The grey dotted line indicates the expected level of spontaneous diabetes in mice aged 14 weeks on day 0 of the experiments (based on the data in FIG. 1 and normalised for gender). Statistical analysis with Mantel-Cox Log-rank test. *p<0.05 for RG-15 versus YA-15, **p<0.01 for ME-15 versus GP-15, YA-15 or VD-14. ? p<0.05 for ME-15 versus DA-15. Rest not significant. (b-f) Blood glucose levels for each individual mouse in the group immunised with GP-15 (b), YA-15 (c), ME-15 (d), RG-15 (e), DA-15 (f), VD-14 (g).
# HLA-DR3-DQ2-transgenic (B6.hCD4.DR3-DQ2.MHCII^−/− mice (described previously (de Kauwe A L et al. (2009) J Immunol 182(12): 7440-7450), and obtained from J. McCluskey) were crossed with RIP-B7.1-transgenic animals (B6.Cg-Tg(Ins2-CD80)3B7Flv/Orl, EMMA, Orleans, France; ID 00216) in order to obtain HLA-DR3-DQ2^+huCD4^+IA/IE^−/−RIP.B7.1^+ mice, hereafter referred to as DR3DQ2×RIP-B7.1. DR4×RIP-B7.1 mice, generated by crossing B6.129S2-H2-Ab1^tm/Gru Tg(HLA-DRA/H2-Ea,HLA-DRB1*0401/H2-Eb) 1Kito mice with B6.Cg-Tg(Ins2-CD80)3B7Flv/Orl, were described previously (Verhagen J, et al. (2018) Sci Rep 8(1): 14106). All animals were kept under specific-pathogen-free conditions, in individually ventilated cages, at the KCL Biological Services Unit on 12-hour light/dark cycles with food and water provided ad libitum. Experiments were conducted in accordance with UK Home Office regulations under a project license held by M. Peakman. All work was subject to assessment and approved locally by Guy's animal welfare and ethical review board (AWERB).
# All mice were monitored regularly for unprovoked glycosuria using Diastix strips (Bayer, Basel, Switzerland). Some mice were monitored weekly for hyperglycaemia, from the age of 6-7 weeks, by a minimal puncture of the tail vein at alternate sides of the tail and analysis using a OneTouch Verio meter and strips (Lifescan, High Wycombe, UK), in order to closely monitor progression towards spontaneous diabetes. Mice were considered diabetic following a blood glucose reading >16.7 mmol/l (300 mg/dl) in addition to confirmed glycosuria. […] Mice (aged 6-14 weeks) were primed with 100 μg of peptides or protein in TiterMax Gold adjuvant (TiterMax, Norcross, GA, USA) subcutaneously (s.c.) at the base of the tail and received a second dose s.c. distributed over the inguinal region on day 14. Mice received 200 ng Pertussis toxin (Sigma, Poole, UK) in PBS intraperitoneally (i.p.) on days 0 and 1 or 2. Mice were then monitored weekly for hyperglycaemia and for glycosuria. […]
# RIP.CD80×DR3DQ2 mice = assay: Tolerance induction against accelerated diabetes; format: in vivo; conditions: 10 μg soluble peptide s.c., 6 injections, before and after priming with murine B23-C20 in adjuvant; ME-15 versus YA-15 p<0.01, versus VD-14 p<0.05
# Procedure: FIG. 6 Tolerance induction against accelerated diabetes in RIP.CD80×DR3DQ2 mice. (a) Schedule of dosing. Mice aged 7-8 weeks (n=7 per group) were treated with soluble 14/15-mer peptide in PBS subcutaneously (s.c.) before and after acceleration of diabetes development by antigenic priming with 30-mer murine proinsulin-2 peptide B23-C20 in TiterMax Gold adjuvant on days 0 and 14. Pertussis toxin administered intraperitoneally (i.p.) on days 0 and 2. (b) Diabetes incidence in mice treated with 14/15-mer peptide ME-15 (1♀6♂), YA-15 (4♀3♂) or VD-14 (3♀4♂). Statistical analysis with Mantel-Cox Log-rank test. ME-15 versus YA-15, p<0.01; ME versus VD-14, p<0.05.
# All mice were monitored regularly for unprovoked glycosuria using Diastix strips (Bayer, Basel, Switzerland). Some mice were monitored weekly for hyperglycaemia, from the age of 6-7 weeks, by a minimal puncture of the tail vein at alternate sides of the tail and analysis using a OneTouch Verio meter and strips (Lifescan, High Wycombe, UK), in order to closely monitor progression towards spontaneous diabetes. Mice were considered diabetic following a blood glucose reading >16.7 mmol/l (300 mg/dl) in addition to confirmed glycosuria. […] Mice were then monitored weekly for hyperglycaemia and for glycosuria. […]
# Solubility of peptide = format: physicochemical
# [1] = system: human peripheral blood mononuclear cells (PBMCs); assay: ELISPOT assay of cytokine responses to proinsulin peptides; format: cell-based; conditions: 10 μg/ml peptide, 48 hours
# Text: Responses to proinsulin B30-C13 in human donors. PBMC from individuals with either HLA-DR3-DQ2 (a) or any other haplotype (b) were stimulated in vitro with human proinsulin-derived peptide B30-C13 or C19-A3 prior to detection of IFNγ by ELISPOT assay. HLA-DR3-DQ2 individuals, n=3; non-HLA-DR3-DQ2, n=6. *p<0.05, ratio paired t test.
# Responses to proinsulin B23-C20, B29-C11, B29-C14, B30-C13 and C-1-C14 peptides are shown. PBMCs from 5 type 1 diabetes patients with HLA-DR3-DQ2 (identified as #1-#5) were stimulated in vitro with human proinsulin-derived peptides B23-C20, B29-C11, B29-C14, B30-C13 and C−1-C14 prior to detection of IFN-γ and IL-17 (pro-inflammatory responses) and IL-10 (regulatory response) by ELISPOT assay. […]
# ELISPOT assays were carried out using human peripheral blood mononuclear cells (PBMCs) isolated from fresh heparinized blood. […] The cytokine secretion assay was performed using the IFN-γ, IL-17 and IL-10 ELISPOT kits (U-CyTech) according to the manufacturer's instructions and plates were analysed using an automated ELISPOT Bioreader 6000 (Bio-Sys) and relevant software. Data are expressed as the total number of spots in triplicate wells after peptide stimulation divided by the total number of spots in diluent only control wells (stimulation index [SI]) or as responder CD4 T cells/10^6 PBMCs.
# [2] = adjuvanted priming, follow up to 20 weeks post prime
substance,measurement,setting,value
"DPQVAQLELGGGPGA (listed as Mus musculus) [DA-15, murine proinsulin-2 15-mer]",diabetes acceleration / incidence versus control or spontaneous onset (in words),DR3DQ2×RIP-B7.1 mice; [2],cannot
GAD65: Recombinant human GAD65 (T-cell GAD) purchased from Diamyd Medical,diabetes acceleration / incidence versus control or spontaneous onset (in words),DR3DQ2×RIP-B7.1 mice; [2],only priming with proinsulin peptides clearly hastened diabetes onset and increased incidence
"GFFYTPMSRREVEDPQVAQLELGGGPGAGD (listed as Mus musculus) [B23-C20, murine 30-mer proinsulin-2 peptide B23-C20]",mean time of onset of diabetes (SD),"DR3DQ2×RIP-B7.1 mice; 100 μg in TiterMax Gold adjuvant s.c. days 0 and 14, pertussis toxin",49±16.2 days post prime
same,diabetes incidence,"DR3DQ2×RIP-B7.1 mice; by day 84 post prime, 100 μg in TiterMax Gold adjuvant",100%
same,diabetes acceleration / incidence versus control or spontaneous onset (in words),"DR3DQ2×RIP-B7.1 mice; mouse, in vivo","most overt disease exacerbation, with very rapid development of diabetes"
MSRREVEDPQVAQLE (listed as Mus musculus) [ME-15],tolerogenic effect on diabetes induced with B23-C20,RIP.CD80×DR3DQ2 mice,tolerogenic effect
same,diabetes acceleration / incidence versus control or spontaneous onset (in words),DR3DQ2×RIP-B7.1 mice; [2],markedly higher disease incidence during follow up than would be expected spontaneously
"REVEDPQVAQLELGG [RG-15, REVEDPQVAQLELGG]",solubility in aqueous solution,Solubility of peptide; aqueous solution,highly insoluble
same,solubility in dimethyl sulfoxide,Solubility of peptide; dimethyl sulfoxide,soluble
"TRREAEDLQVGQVELG (listed as Homo sapiens) [B30-C13, fragment of human proinsulin, residues B30-C13]","IFNγ ELISPOT response, HLA-DR3-DQ2 donors versus donors without this haplotype","[1]; HLA-DR3-DQ2 n=3, non-HLA-DR3-DQ2 n=6",greater response
same,IFNγ ELISPOT response versus control peptide C19-A3,[1]; p<0.05 ratio paired t test,greater than that to our control peptide C19-A3
"VAQLELGGGPGAGD (listed as Mus musculus) [VD-14, murine proinsulin-2 14-mer]",diabetes acceleration / incidence versus control or spontaneous onset (in words),DR3DQ2×RIP-B7.1 mice; [2],cannot

# From patent US20230348562A1, “Proinsulin Peptides for Type I Diabetes” (King's College London, priority 2019, published 2023)
